SMILES strings stand for the structures.

The subject of one assay is advanced solid tumors. The note with it: cited from earlier work.
Another assay relates to LoVo cell. As to the kind of experiment: Inhibition of proliferation of LoVo cell, CCK-8 method. The settings on record: Homo sapiens, 72 h, CCK-8, 3 days, read-out: IC50, inhibitory effect on the proliferation of LoVo cell. The class given is cell-based. The procedure: Determination of the Inhibitory Effect of Compounds on the Proliferation of LoVo Cell Using CCK-8 Method
(§1) The cells were digested by trypsinase and centrifuged at 800 rpm for 5 minutes, the supernatant was discarded, and the residual was resuspended with fresh medium and counted. The cells were seeded into 96-well cell culture plate with a density of 6000 cells per well and incubated overnight in a 5% C02 incubator at 37° C. The stock solutions of test compounds were serially diluted to 8 concentrations by DMSO at the ratios of 1:3 and 1:10, respectively. The final concentration of compound was: 10 μM, 3.3 μM, 1 μM, 0.33 μM, 0.1 μM, 0.033 μM, 0.01 μM and 0 μM. 5 μL diluent of each concentration was added to 120 μL of medium (25 times diluted) and mixed by shaking. The overnight cell plates were taken and the culture medium was removed, 195 μL of fresh medium was added to each well, and 5 μL of diluted medium containing the corresponding concentration of the test compound was added respectively (the final concentration of DMSO is 1‰), and the culture plate was then placed in a 5% CO2 incubator at 37° C. for 3 days. After removing the original solution, 90 μL of fresh serum-free 1640 medium was added, then 10 μL of CCK-8 reagent was added to each well and continued incubation for 2 hours. The 96-well plates were placed in a multi-function reader to read the absorbance at the wavelength of 450/650 nm. Cell viability (%)=(ODcompound−ODbackground)/(ODDMSO−ODbackground)×100. GraphPad Prism 5.0 was used to analyze the data. The inhibitory activity of compounds on cell proliferation was plotted based on cell viability and the logarithm of compound concentration. The IC50 value was fitted by a sigmoidal dose response curve equation Y=100/(1+10^(Log C−Log IC50)), wherein C was the concentration of compound.
Table 2 summarizes the inhibitory effect data (IC50) of compounds on the proliferation of LoVo cell

The target of another assay is Wee1 (h) (Homo sapiens, UniProt P30291). Kind of assay: Wee1(h) kinase activity experiment ([γ-33P]-ATP, filtermat, scintillation counting). The settings on record: 10 μM ATP, 40 minutes at room temperature; read-out: IC50, inhibitory effect on Wee1 kinase activity. The class given is biochemical. The procedure:
Determination of the Inhibitory Effect of Compounds on Wee1 Kinase Using Wee1(h) Kinase Activity Experiment
Wee1 (h) is incubated with 20 mM Tris/HCl pH 8.5, 0.2 mM EDTA, 500 μM […], 10 mM MgAcetate and 10 μM [γ-^33P]-ATP. Then 50 times the concentration of the testing compound in 100% DMSO was added until the final concentration was 10 μM, then mixed, and diluted to 10 concentrations in successive series according to the ratio of 1:3 and 1:10 respectively (the last concentration was DMSO negative control): 10 μM, 3 μM, 1 μM, 0.3 μM, 0.1 μM, 0.03 μM, 0.01 μM, 0.003 μM, 0.001 μM, 0 μM. The reaction is initiated by the addition of the Mg/ATP mix. After incubation for 40 minutes at room temperature, the reaction is stopped by the addition of phosphoric acid to a concentration of 0.5%. 10 μL of the reaction liquor is then spotted onto a P30 filtermat and washed four times in 0.425% phosphoric acid and once in methanol prior to drying and scintillation counting. Each compound sample is duplicated in duplicate. The negative control was the components except of Wee1 enzyme, and the positive control was the components of adding 30% phosphoric acid to terminate the reaction. Table 1 summarizes the inhibitory effects of compounds on Wee1 kinase activity (IC50).

The next assay deals with NCI-H1299 cell. Kind of assay: Inhibition of proliferation of NCI-H1299 cell, CCK-8 method. Type of assay: cell-based. The note with it: Homo sapiens, NCI-H1299, 72 h; CCK-8, 3 days; read-out: IC50, inhibitory effect on the proliferation of NCI-H1299 cell. The procedure:
Determination of the Inhibitory Effect of Compounds on the Proliferation of NCI-H1299 Cell Using CCK-8 Method
as §1, with “1000” for “6000”, “CO2” for “C02”
Table 3 summarizes the inhibitory effect data (IC50) of compounds on the proliferation of NCI-H1299 cell.
(Tetrazolium dyes change colour on reduction, which living cells bring about.)

Where [1] appears, read: 176 evaluable patients, AZD1775 alone or in combination with chemotherapy.

Wee1 (h), sequence (P30291 whole entry): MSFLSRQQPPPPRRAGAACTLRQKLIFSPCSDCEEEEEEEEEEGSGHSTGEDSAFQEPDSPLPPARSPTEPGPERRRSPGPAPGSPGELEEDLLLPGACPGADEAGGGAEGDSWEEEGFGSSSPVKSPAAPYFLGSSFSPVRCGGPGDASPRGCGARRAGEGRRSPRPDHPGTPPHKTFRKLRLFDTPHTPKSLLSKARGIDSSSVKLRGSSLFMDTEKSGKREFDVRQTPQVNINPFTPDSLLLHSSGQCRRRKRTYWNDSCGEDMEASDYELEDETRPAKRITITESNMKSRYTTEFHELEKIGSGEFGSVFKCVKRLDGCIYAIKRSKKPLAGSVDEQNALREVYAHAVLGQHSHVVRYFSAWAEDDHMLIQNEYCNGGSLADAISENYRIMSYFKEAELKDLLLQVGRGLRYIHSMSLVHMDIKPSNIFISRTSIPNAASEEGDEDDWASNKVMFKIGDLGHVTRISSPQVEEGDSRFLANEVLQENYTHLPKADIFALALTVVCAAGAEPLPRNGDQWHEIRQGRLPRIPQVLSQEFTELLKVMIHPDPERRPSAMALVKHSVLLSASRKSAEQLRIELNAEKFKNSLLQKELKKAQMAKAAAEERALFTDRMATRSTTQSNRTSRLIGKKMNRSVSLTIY

For the compound `C=CCn1c(=O)c2cnc(Nc3ccc(N4CCN(C)CC4)cc3)nc2n1-c1cccc(C(C)(C)O)n1` [AZD1775], in the assay on advanced solid tumors (setting [1]), the “patients with partial response” value is given as 10% and the “patients with stable disease as the best response” value is on record as 53%. For the same compound, the “response rate in patients with TP53 mutation” value in the assay with advanced solid tumors (TP53 mutation (n=19)) is reported as 21%. For the same compound, the “response rate in TP53 wild-type patients” value in the assay on advanced solid tumors (TP53 wild-type (n=33)) is 12%.

`Cc1cc(Nc2ncc3c(n2)N2CCN=C2N(c2c(Cl)cccc2Cl)C3=O)ccc1N1C[C@@H](C)N[C@@H](C)C1` [Example 1, 6-(2,6-dichlorophenyl)-2-((4-((3S,5R)-3,5-dimethylpiperazin-1-yl)-3-methylphenyl)amino)-8,9-dihydroimidazo[1,2-a]pyrimido[5,4-e]pyrimidin-5(6H)-one]: the IC50 stood at 126 nM with LoVo cell, 37 nM on Wee1 (h) and 71 nM in the assay on NCI-H1299 cell.

Take `[2H]C([2H])([2H])N1[C@H](C)CN(c2ccc(Nc3ncc4c(n3)N3CCN=C3N(c3c(Cl)cccc3Cl)C4=O)cc2C)C[C@@H]1C` [Example 2, 6-(2,6-dichlorophenyl)-2-((4-((3S,5R)-3,5-dimethyl-4-(methyl-d3)piperazin-1-yl)-3-methylphenyl)amino)-8,9-dihydroimidazo[1,2-a]pyrimido[5,4-e]pyrimidin-5(6H)-one]: the IC50 amounted to 158 nM in the assay with LoVo cell, 21 nM at Wee1 (h) and 123 nM in the assay with NCI-H1299 cell.

Regarding `C[C@@H]1CN(c2ccc(Nc3ncc4c(n3)N3CCN=C3N(c3c(Cl)cccc3Cl)C4=O)cc2Br)C[C@H](C)N1C` [Example 3, 2-((3-bromo-4-((3S,5R)-3,4,5-trimethylpiperazin-1-yl)phenyl)amino)-6-(2,6-dichlorophenyl)-8,9-dihydroimidazo[1,2-a]pyrimido[5,4-e]pyrimidin-5(6H)-one], the IC50 came out at 219 nM in the assay with LoVo cell and 382 nM with NCI-H1299 cell.

Turning to `Cc1cc(Nc2ncc3c(n2)N2CCN=C2N(c2c(Cl)cccc2Cl)C3=O)cc(F)c1N1C[C@@H](C)N(C)[C@@H](C)C1` [Example 5, 6-(2,6-dichlorophenyl)-2-((3-fluoro-5-methyl-4-((3S,5R)-3,4,5-trimethylpiperazin-1-yl)phenyl)amino)-8,9-dihydroimidazo[1,2-a]pyrimido[5,4-e]pyrimidin-5(6H)-one], the IC50 in the assay with LoVo cell was found to be 124 nM; in the assay with NCI-H1299 cell, 182 nM.

Consider `Cc1cc(Nc2ncc3c(n2)N2CCN=C2N(c2c(Cl)cccc2Cl)C3=O)ccc1N1C[C@H](C)N(C)[C@@H](C)C1` [Example 8, 6-(2,6-dichlorophenyl)-2-((3-methyl-4-((3S,5S)-3,4,5-trimethylpiperazin-1-yl)phenyl)amino)-8,9-dihydroimidazo[1,2-a]pyrimido[5,4-e]pyrimidin-5(6H)-one], for which the IC50 in the assay on LoVo cell amounted to 163 nM; on Wee1 (h), 30 nM; in the assay with NCI-H1299 cell, 214 nM.

Turning to `Cc1cc(Nc2ncc3c(n2)N2CCN=C2N(c2c(Cl)cccc2Cl)C3=O)ccc1C1CCNCC1` [Example 9, 6-(2,6-dichlorophenyl)-2-((3-methyl-4-(piperidin-4-yl)phenyl)amino)-8,9-dihydroimidazo[1,2-a]pyrimido[5,4-e]pyrimidin-5(6H)-one], the IC50 worked out at 533 nM in the assay with LoVo cell, 23 nM on Wee1 (h) and 940 nM in the assay on NCI-H1299 cell.

On to `Cc1cc(Nc2ncc3c(n2)N2CCN=C2N(c2c(Cl)cccc2Cl)C3=O)ccc1C1CCN(C)CC1` [Example 12, 6-(2,6-dichlorophenyl)-2-((3-methyl-4-(1-methylpiperidin-4-yl)phenyl)amino)-8,9-dihydroimidazo[1,2-a]pyrimido[5,4-e]pyrimidin-5(6H)-one], for which the IC50 with LoVo cell was determined as 78 nM; at Wee1 (h), 23 nM; in the assay on NCI-H1299 cell, 79 nM.

`Cc1cc(Nc2ncc3c(n2)N2CCN=C2N(c2c(Cl)cccc2Cl)C3=O)cc(F)c1C1CCN(C)CC1` [Example 13, 6-(2,6-dichlorophenyl)-2-((3-fluoro-5-methyl-4-(1-methylpiperidin-4-yl)phenyl)amino)-8,9-dihydroimidazo[1,2-a]pyrimido[5,4-e]pyrimidin-5(6H)-one]: the IC50 in the assay with LoVo cell worked out at 73 nM; on Wee1 (h), 26 nM; in the assay with NCI-H1299 cell it was 85 nM.
